PubChem BioAssay (NCI)
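Grown in 96-well plates, cells were treated for 48 hours with each compound at five concentrations. Insufficient inhibition: endpoint recorded as highest concentration tested. TGI: concentration producing complete growth inhibition.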

Tests used:
Experiment in all cases: NCI-60 cell line screen, 48 h
SR leukemia = system: SR leukemia
K-562 leukemia = system: K-562 leukemia
SK-MEL-5 melanoma = system: SK-MEL-5 melanoma
COLO 205 colon = system: COLO 205 colon
SK-MEL-2 melanoma = system: SK-MEL-2 melanoma
CAKI-1 renal = system: CAKI-1 renal
NCI-H460 lung = system: NCI-H460 lung
MDA-N = system: MDA-N
HT29 colon = system: HT29 colon
SF-539 CNS = system: SF-539 CNS
EKVX NSCLC = system: EKVX NSCLC
ACHN renal = system: ACHN renal
U251 CNS = system: U251 CNS
RXF 393 renal = system: RXF 393 renal
HOP-62 NSCLC = system: HOP-62 NSCLC
HCC-2998 colon = system: HCC-2998 colon
MDA-MB-435 = system: MDA-MB-435
UACC-257 melanoma = system: UACC-257 melanoma
UO-31 renal = system: UO-31 renal
MOLT-4 leukemia = system: MOLT-4 leukemia
MDA-MB-231 breast = system: MDA-MB-231 breast
TK-10 renal = system: TK-10 renal
SF-295 CNS = system: SF-295 CNS
IGROV1 ovarian = system: IGROV1 ovarian
A498 renal = system: A498 renal
OVCAR-5 ovarian = system: OVCAR-5 ovarian
M14 melanoma = system: M14 melanoma
HOP-92 NSCLC = system: HOP-92 NSCLC
786-0 renal = system: 786-0 renal
SF-268 CNS = system: SF-268 CNS
HL-60(TB) leukemia = system: HL-60(TB) leukemia
DU-145 prostate = system: DU-145 prostate
SK-MEL-28 melanoma = system: SK-MEL-28 melanoma
RPMI-8226 leukemia = system: RPMI-8226 leukemia
HS 578T breast = system: HS 578T breast
MCF7 breast = system: MCF7 breast
HCT-116 colon = system: HCT-116 colon
SNB-19 CNS = system: SNB-19 CNS
NCI-H226 lung = system: NCI-H226 lung
NCI-H23 lung = system: NCI-H23 lung
LOX IMVI melanoma = system: LOX IMVI melanoma
PC-3 prostate = system: PC-3 prostate
NCI/ADR-RES ovarian = system: NCI/ADR-RES ovarian
OVCAR-3 ovarian = system: OVCAR-3 ovarian
SK-OV-3 ovarian = system: SK-OV-3 ovarian
SN12C renal = system: SN12C renal
SW-620 colon = system: SW-620 colon
A549 NSCLC = system: A549 NSCLC
OVCAR-8 ovarian = system: OVCAR-8 ovarian
MALME-3M melanoma = system: MALME-3M melanoma
BT-549 breast = system: BT-549 breast
HCT-15 colon = system: HCT-15 colon
CCRF-CEM leukemia = system: CCRF-CEM leukemia
KM12 colon = system: KM12 colon
NCI-H522 lung = system: NCI-H522 lung
OVCAR-4 ovarian = system: OVCAR-4 ovarian
UACC-62 melanoma = system: UACC-62 melanoma
SNB-75 CNS = system: SNB-75 CNS

CC(C)(C)C1CCC2c3c([nH]c4ccccc34)C3C(=O)N(c4ccc(C#N)cc4)C(=O)C3C2C1 (configuration not stated)
TGI (SR leukemia): > 100 µM
TGI (K-562 leukemia): 30.4 µM
TGI (SK-MEL-5 melanoma): 25.5 µM
TGI (COLO 205 colon): > 100 µM
TGI (SK-MEL-2 melanoma): 30 µM
TGI (CAKI-1 renal): 61 µM
TGI (NCI-H460 lung): 17.1 µM
TGI (MDA-N): 26.9 µM
TGI (HT29 colon): 20.3 µM
TGI (SF-539 CNS): 43.2 µM
TGI (EKVX NSCLC): 41.2 µM
TGI (ACHN renal): 65.3 µM
TGI (U251 CNS): 37.1 µM
TGI (RXF 393 renal): 15.4 µM
TGI (HOP-62 NSCLC): 31.2 µM
TGI (HCC-2998 colon): 11.1 µM
TGI (MDA-MB-435): > 100 µM
TGI (UACC-257 melanoma): 82.9 µM
TGI (UO-31 renal): 33.2 µM
TGI (MOLT-4 leukemia): > 100 µM
TGI (MDA-MB-231 breast): 35.2 µM
TGI (TK-10 renal): 63.4 µM
TGI (SF-295 CNS): > 100 µM
TGI (IGROV1 ovarian): > 100 µM
TGI (A498 renal): 35.5 µM
TGI (OVCAR-5 ovarian): 56.8 µM
TGI (M14 melanoma): 72.6 µM
TGI (HOP-92 NSCLC): 22.6 µM
TGI (786-0 renal): 33.7 µM
TGI (SF-268 CNS): 29.3 µM
TGI (HL-60(TB) leukemia): 15 µM
TGI (DU-145 prostate): 35.7 µM
TGI (SK-MEL-28 melanoma): 36.3 µM
TGI (RPMI-8226 leukemia): > 100 µM
TGI (HS 578T breast): 37 µM
TGI (MCF7 breast): > 100 µM
TGI (HCT-116 colon): 18 µM
TGI (SNB-19 CNS): > 100 µM
TGI (NCI-H226 lung): 42.1 µM
TGI (NCI-H23 lung): 23.6 µM
TGI (LOX IMVI melanoma): 34.6 µM
TGI (PC-3 prostate): 17.6 µM
TGI (NCI/ADR-RES ovarian): 53.5 µM
TGI (OVCAR-3 ovarian): 90.8 µM
TGI (SK-OV-3 ovarian): > 100 µM
TGI (SN12C renal): 21.4 µM
TGI (SW-620 colon): 39.7 µM
TGI (A549 NSCLC): 63.5 µM
TGI (OVCAR-8 ovarian): 45.6 µM
TGI (MALME-3M melanoma): 37.5 µM
TGI (BT-549 breast): 65.5 µM
TGI (HCT-15 colon): 26.2 µM

CC[C@@]1(O)C(=O)OCc2c1cc1n(c2=O)Cc2c-1nc1ccc(O)cc1c2[Si](C)(C)C(C)(C)C
TGI (SR leukemia): < 0.0112 µM
TGI (K-562 leukemia): > 94.5 µM
TGI (SK-MEL-5 melanoma): 0.0387 µM
TGI (COLO 205 colon): 1.53 µM
TGI (SK-MEL-2 melanoma): 0.786 µM
TGI (CAKI-1 renal): < 0.0137 µM
TGI (NCI-H460 lung): 0.0263 µM
TGI (MDA-N): 4.63 µM
TGI (HT29 colon): 4.39 µM
TGI (SF-539 CNS): < 0.01 µM
TGI (EKVX NSCLC): 15.8 µM
TGI (U251 CNS): 0.0192 µM
TGI (RXF 393 renal): 0.0378 µM
TGI (HOP-62 NSCLC): 1.49 µM
TGI (CCRF-CEM leukemia): < 0.01 µM
TGI (HCC-2998 colon): 0.401 µM
TGI (MDA-MB-435): 1.65 µM
TGI (UACC-257 melanoma): 0.681 µM
TGI (UO-31 renal): 0.0357 µM
TGI (MOLT-4 leukemia): 0.106 µM
TGI (KM12 colon): 0.131 µM
TGI (NCI-H522 lung): 0.135 µM
TGI (MDA-MB-231 breast): 20.6 µM
TGI (TK-10 renal): > 92.7 µM
TGI (SF-295 CNS): 1.32 µM
TGI (IGROV1 ovarian): 7.41 µM
TGI (OVCAR-5 ovarian): 2.58 µM
TGI (M14 melanoma): < 0.0114 µM
TGI (HOP-92 NSCLC): 2.31 µM
TGI (786-0 renal): < 0.0255 µM
TGI (SF-268 CNS): 0.804 µM
TGI (HL-60(TB) leukemia): < 0.01 µM
TGI (DU-145 prostate): 0.0142 µM
TGI (SK-MEL-28 melanoma): 10.7 µM
TGI (RPMI-8226 leukemia): 4.77 µM
TGI (HS 578T breast): > 57.9 µM
TGI (MCF7 breast): > 41.2 µM
TGI (HCT-116 colon): 0.147 µM
TGI (NCI-H226 lung): 0.015 µM
TGI (OVCAR-4 ovarian): 0.174 µM
TGI (NCI-H23 lung): 0.0274 µM
TGI (LOX IMVI melanoma): 0.163 µM
TGI (PC-3 prostate): 2.9 µM
TGI (NCI/ADR-RES ovarian): 4.64 µM
TGI (OVCAR-3 ovarian): 0.0752 µM
TGI (SK-OV-3 ovarian): > 53 µM
TGI (UACC-62 melanoma): 0.164 µM
TGI (SN12C renal): < 0.0233 µM
TGI (SW-620 colon): 10.9 µM
TGI (SNB-75 CNS): 0.0162 µM
TGI (A549 NSCLC): 1.19 µM
TGI (OVCAR-8 ovarian): > 42.3 µM
TGI (MALME-3M melanoma): 0.179 µM
TGI (BT-549 breast): 1.17 µM
TGI (HCT-15 colon): 8.81 µM
